The nature of series [1]: logP determination by HPLC (formic acid method). The class given is physicochemical. The conditions noted are these: reversed-phase HPLC column (C18), reversed-phase column (C 18), 55° C., acidic range (pH 3.4), read-out: log P(HCOOH). On the procedure:
1) Description of the Method for Determining the logP Values (Formic Acid Method) The logP values were determined in accordance with EEC Directive 79/831 Annex V.A8 by HPLC (High Performance Liquid Chromatography) using a reversed-phase column (C 18). Temperature: 55° C. Mobile phases for determination in the acidic range (pH 3.4): Mobile phase A: acetonitrile+1 ml of formic acid/litre. Mobile phase B: water+0.9 ml of formic acid/litre. Gradient: 10% mobile phase A/90% mobile phase B to 95% mobile phase A/5% mobile phase B over 4.25 min. Calibration was carried out using unbranched alkan-2-ones (having from 3 to 16 carbon atoms) with known logP values (the logP values were determined by the retention times using linear interpolation between two successive alkanones). The lambda max values were determined in the maxima of the chromatographic signals using the UV spectra from 200 nm to 400 nm.

Series [2] relates to green peach aphid (Myzus persicae). The series can be described thus: Myzus test, spray treatment. The class given is in vivo. The conditions noted are these: application rate of 500 g/ha; spray treatment of Chinese cabbage discs; after 6 days. On the procedure: Myzus Test Spray Treatment Solvent: 78 parts by weight of acetone • • 1.5 parts by weight of dimethylformamide Emulsifier: 0.5 part by weight of alkylaryl polyglycol ether To produce a suitable preparation of active compound, 1 part by weight of active compound is mixed with the stated amounts of solvent and emulsifier, and the concentrate is diluted with emulsifier-containing water to the desired concentration. Discs of Chinese cabbage (Brassica pekinensis) infected by all stages of the green peach aphid (Myzus persicae) are sprayed with an active compound preparation of the desired concentration. After 6 days, the effect in % is determined. 100% means that all of the aphids have been killed; 0% means that none of the aphids have been killed.

Consider `Clc1nc(-c2cccnc2)sc1-c1cccc(-c2ncccn2)n1` [2-{6-[4-Chloro-2-(pyridin-3-yl)-1,3-thiazol-5-yl]pyridin-2-yl}pyrimidine], for which the chromatographic logP in series [1] amounted to 2.27.
`Clc1cnc(-c2cccc(-c3sc(-c4cccnc4)nc3Cl)n2)nc1` [5-Chloro-2-{6-[4-chloro-2-(pyridin-3-yl)-1,3-thiazol-5-yl]pyridin-2-yl}pyrimidine]: the chromatographic logP in series [1] amounted to 3.27.
Regarding `Fc1nc(-c2cccnc2)sc1-c1cccc(-c2ncccn2)n1` [Example 1, 2-[6-(4-Fluoro-2-pyridin-3-ylthiazol-5-yl)pyridin-2-yl]pyrimidine], the chromatographic logP in series [1] worked out at 2.15. In addition, the “effect in % (100% means that all of the aphids have been killed)” value in series [2] stood at 100%.
